Assay results from ChEMBL document CHEMBL1129432, “Structure-activity relationships of a series of novel (piperazinylbutyl)thiazolidinone antipsychotic agents related to 3-[4-[4-(6-fluorobenzo[b]thien-3-yl)-1-piperazinyl]butyl]-2,5,5- trimethyl-4-thiazolidinone maleate” (J Med Chem, 1996).

Assays:
[1] = target: T1, 5-hydroxytryptamine receptor 1A (Rattus norvegicus, UniProt P19327); assay: Binding affinity towards serotonin 5-HT1A receptor was determined in rat hippocampus using [3H]8-OH-DPAT as ligand; assay type: tissue-based
T1 sequence (P19327 whole entry): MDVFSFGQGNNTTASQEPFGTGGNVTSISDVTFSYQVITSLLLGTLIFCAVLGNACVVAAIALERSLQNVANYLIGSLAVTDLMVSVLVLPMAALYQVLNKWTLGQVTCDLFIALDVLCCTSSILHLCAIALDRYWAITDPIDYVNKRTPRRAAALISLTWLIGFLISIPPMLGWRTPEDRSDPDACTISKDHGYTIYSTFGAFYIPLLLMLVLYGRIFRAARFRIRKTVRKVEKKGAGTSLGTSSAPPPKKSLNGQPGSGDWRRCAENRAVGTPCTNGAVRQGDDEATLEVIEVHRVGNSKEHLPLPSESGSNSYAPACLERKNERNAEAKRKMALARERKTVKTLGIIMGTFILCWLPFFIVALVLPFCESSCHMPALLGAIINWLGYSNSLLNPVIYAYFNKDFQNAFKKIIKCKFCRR

[2] = target: Serotonin 2 (5-HT2) receptor (Rattus norvegicus, UniProt P30994+P08909+P14842); assay: Binding affinity towards serotonin 5-HT2 receptor was determined in rat cortex using [3H]spiperone as ligand
[3] = target: D(2) dopamine receptor (Rattus norvegicus, UniProt P61169); assay: Binding affinity towards Dopamine receptor D2 was determined in rat striatum using [3H]- spiperone as radioligand; assay type: tissue-based
Sequence of D(2) dopamine receptor (P61169 whole entry): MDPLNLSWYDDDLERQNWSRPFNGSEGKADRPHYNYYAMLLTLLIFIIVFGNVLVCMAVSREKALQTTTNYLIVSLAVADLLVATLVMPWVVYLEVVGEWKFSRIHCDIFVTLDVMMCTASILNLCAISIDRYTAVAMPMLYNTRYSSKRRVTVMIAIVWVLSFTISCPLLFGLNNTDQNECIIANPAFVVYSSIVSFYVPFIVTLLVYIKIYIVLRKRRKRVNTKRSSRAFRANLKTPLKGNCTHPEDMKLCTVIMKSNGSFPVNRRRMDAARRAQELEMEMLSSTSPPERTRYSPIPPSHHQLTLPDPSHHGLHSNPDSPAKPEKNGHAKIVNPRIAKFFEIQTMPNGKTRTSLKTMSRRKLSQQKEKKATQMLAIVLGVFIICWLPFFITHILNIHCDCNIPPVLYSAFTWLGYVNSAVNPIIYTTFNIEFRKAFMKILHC

[4] = Intraperitoneal effective dose required for inhibition of apomorphine-induced stereotypy in rat; assay type: functional; details: ip
[5] = system: Rattus norvegicus; assay: Compound at an intraperitoneal dose of 20 mg/Kg was tested for the inhibition of apomorphine-induced stereotypy in rat; assay type: functional; parameters: scale not given: the % may be the effect or the level left
[6] = Compound at an intraperitoneal dose of 40 mg/Kg was tested for the inhibition of apomorphine-induced stereotypy in rat; assay type: functional; parameters: scale not given: the % may be the effect or the level left
[7] = system: Rattus norvegicus; assay: Compound at an intraperitoneal dose of 80 mg/Kg was tested for the inhibition of apomorphine-induced stereotypy in rat; assay type: functional; parameters: scale not given: the % may be the effect or the level left
[8] = target: T2, 5-hydroxytryptamine receptor 2A (Homo sapiens, UniProt P28223); assay: Inhibitory concentration against human 5-HT2A receptor in BEK cells; assay type: cell-based
T2 sequence (P28223 whole entry): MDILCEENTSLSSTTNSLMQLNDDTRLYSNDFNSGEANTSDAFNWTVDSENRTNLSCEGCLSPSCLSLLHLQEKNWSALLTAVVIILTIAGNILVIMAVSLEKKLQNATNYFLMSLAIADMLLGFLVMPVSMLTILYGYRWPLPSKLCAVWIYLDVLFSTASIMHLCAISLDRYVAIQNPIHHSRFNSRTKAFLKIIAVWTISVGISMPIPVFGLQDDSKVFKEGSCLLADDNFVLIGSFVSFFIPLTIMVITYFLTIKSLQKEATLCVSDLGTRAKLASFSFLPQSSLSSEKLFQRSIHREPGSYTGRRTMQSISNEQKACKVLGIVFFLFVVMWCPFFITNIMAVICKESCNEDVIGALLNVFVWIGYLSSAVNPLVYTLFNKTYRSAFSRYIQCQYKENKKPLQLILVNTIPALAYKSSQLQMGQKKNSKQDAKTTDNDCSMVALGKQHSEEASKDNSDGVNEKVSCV

[9] = target: T2, 5-hydroxytryptamine receptor 2A; assay: Binding affinity towards human 5-HT2A receptor in BEK cells; assay type: cell-based
[10] = target: T3, D(4) dopamine receptor (Homo sapiens, UniProt P21917); assay: Binding affinity against human Dopamine receptor D4.2 in CHO cells; assay type: cell-based
T3 sequence (P21917 whole entry): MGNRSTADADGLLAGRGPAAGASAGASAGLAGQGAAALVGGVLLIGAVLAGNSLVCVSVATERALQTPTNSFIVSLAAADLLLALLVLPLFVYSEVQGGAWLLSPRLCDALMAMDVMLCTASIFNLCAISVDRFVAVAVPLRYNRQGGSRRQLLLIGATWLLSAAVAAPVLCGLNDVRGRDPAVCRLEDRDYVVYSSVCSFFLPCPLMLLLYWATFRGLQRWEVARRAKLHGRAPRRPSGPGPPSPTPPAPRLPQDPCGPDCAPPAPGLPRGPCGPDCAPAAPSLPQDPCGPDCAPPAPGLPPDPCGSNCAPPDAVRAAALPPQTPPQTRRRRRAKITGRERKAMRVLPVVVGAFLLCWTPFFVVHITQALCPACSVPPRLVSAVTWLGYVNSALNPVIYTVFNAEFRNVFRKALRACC

[11] = system: Rattus norvegicus; assay: Percentage change in Social interaction when compound administered at a doe of 2.5 mg/kg ip in rats; assay type: functional; details: route intraperitoneal
[12] = system: Rattus norvegicus; assay: Percentage change in Total activity (anti psychotic) when compound administered at a doe of 1.25 mg/kg ip in rats; assay type: functional; details: route intraperitoneal
[13] = system: Rattus norvegicus; assay: Percentage change in Total activity (anti psychotic) when compound administered at a doe of 2.5 mg/kg ip in rats; assay type: functional; details: route intraperitoneal
[14] = system: Rattus norvegicus; assay: Percentage change in Social interaction when compound administered at a doe of 1.25 mg/kg ip in rats; assay type: functional; details: route intraperitoneal
[15] = system: Rattus norvegicus; assay: Percentage change in chronic single unit sampling when compound given at a dose of 10 mg/kg ip in rats; assay type: functional; details: route intraperitoneal
[16] = system: Rattus norvegicus; assay: Percentage change in chronic single unit sampling when compound given at a dose of 10 mg/kg ip in rats(Expt-2); assay type: functional; details: route intraperitoneal
[17] = system: Rattus norvegicus; assay: Percentage change in chronic single unit sampling when compound given at a dose of 20 mg/kg ip in rats; assay type: functional; details: route intraperitoneal
[18] = system: Rattus norvegicus; assay: Percentage change in chronic single unit sampling when compound given at a dose of 20 mg/kg ip in rats (Expt-2); assay type: functional; details: route intraperitoneal
[19] = system: Rattus norvegicus; assay: Anti psychotic effect Social interaction when compound administered at a doe of 1.25 mg/kg ip in rats; assay type: functional; details: route intraperitoneal
[20] = system: Rattus norvegicus; assay: Anti psychotic effect Social interaction when compound administered at a doe of 2.5 mg/kg ip in rats; assay type: functional; details: route intraperitoneal
[21] = system: Rattus norvegicus; assay: Total activity (anti psychotic) when compound administered at a doe of 2.5 mg/kg ip in rats; assay type: functional; details: route intraperitoneal
[22] = system: Rattus norvegicus; assay: Total activity (anti psychotic) when compound administered at a doe of 1.25 mg/kg ip in rats; assay type: functional; details: route intraperitoneal
[23] = target: T3, D(4) dopamine receptor
Description: Inhibitory concentration against human Dopamine receptor D4.2 in CHO cells

IC50 [1] [nM] | IC50 [2] [nM] | IC50 [3] [nM] | Structure (SMILES) | ED50 [4] [mg/kg] | other results
12 | 18.9 | 29 | CC(C)(O)C1SCN(CCCCN2CCN(c3nsc4ccccc34)CC2)C1=O (stereo not drawn) | 2.3 | –
2 | 16 | 244 | O=C1N(CCCCN2CCN(c3csc4ccccc34)CC2)CSC12CCCC2 | – | –
2330 | 53 | 131 | CC1(C)SCN(CCCCN2CCN(c3cn(-c4ccc(F)cc4)c4ccccc34)CC2)C1=O | 7.1 | –
7 | 2 | – | CC1SC(C)(C)C(=O)N1CCCCN1CCN(c2nsc3ccccc23)CC1 (stereo not drawn) | – | Activity [5]: 0%; Activity [6]: 40%
– | 45 | 467 | O=C1N(CCCCN2CCN(c3cn(-c4ccccc4)c4ccccc34)CC2)CSC12CCCCC2 | 27.4 | –
52 | 1110 | 697 | O=C1N(CCCCN2CCN(c3nsc4ccccc34)CC2)CSC12Cc1ccccc1C2 | – | Activity [7]: 50%; Activity [6]: 0%
61 | 56 | – | CC1SC(C)(C)C(=O)N1CCCCN1CCN(c2csc3cc(F)ccc23)CC1 (stereo not drawn) | – | IC50 [8]: 17 nM; Ki [9]: 8 nM; Ki [10]: 5 nM; Change [11]: 9%; Change [12]: 1%; Change [13]: -32%; Change [14]: 14%; Change [15]: -34%; Change [16]: 14%; Change [17]: -57%; Change [18]: 32%; Social interaction [19]: 114; Social interaction [20]: 109.1; Total activity [21]: 96; Total activity [22]: 144.3; IC50 [23]: 29 nM
8080 | 119 | 1090 | CC1SC(C)(C)C(=O)N1CCCCN1CCN(c2cn(-c3ccccc3)c3cc(F)ccc23)CC1 (stereo not drawn) | – | –
17 | 3.5 | 201 | CC1(C)SC(C)(C)N(CCCCN2CCN(c3nsc4ccccc34)CC2)C1=O | – | –
– | – | – | Cc1nc2n(c(=O)c1CCN1CCC(c3noc4cc(F)ccc34)CC1)CCCC2 [RISPERIDONE] | 3.2 | –
38 | 439 | 1840 | Cc1cccc(N2CCN(CCCCN3C(=O)C(C)(C)SC3(C)C)CC2)c1 | – | –
2 | 492 | 150 | COc1ccccc1N1CCN(CCCCN2CSC3(CCCC3)C2=O)CC1 | – | –
2550 | 186 | 200 | CC1SC(C)(C)C(=O)N1CCCCN1CCN(c2cn(-c3ccccc3)c3ccccc23)CC1 (stereo not drawn) | – | Activity [7]: 67%; Activity [6]: 0%
3050 | 126 | 59 | CC1SC(C)(C)C(=O)N1CCCCN1CCN(c2cn(-c3ccc(F)cc3)c3ccccc23)CC1 (stereo not drawn) | 16.4 | –
